Assay results published in patent US4882349A, “Pyrrolacetic amides having antiinflammatory activity” (priority 1982, dated 1989).

Tests used:
[1] = system: carrageenin-induced oedema; experiment: carrageenin-induced oedema test (anti-inflammatory activity); assay type: in vivo, albino male Wistar rats
Procedure: This effect was evaluated by means of an experimental model reproducing acute inflammation: for this purpose the carrageenin- induced oedema test was employed following the method described by C.
Albino male Wistar rats weighing 140-160 g were caged for 10 days at 22±1° C. and given a balanced diet and water ad libitum. Eighteen hours before the experiment the animals were randomized into groups of ten and fasted but with free access to water. Each dose was tested in three groups of rats. Each compound was given either orally, by gavage, or parenterally--intraperitoneal injection--administering as follows:
controls: 0.5% carboxymethylcellulose suspension in physiological saline, 10 ml/kg
treated: suspension of the compounds to be tested in the same vehicle and at the same volume (10 ml/kg) used for the controls at the doses specified below.
One hour after administration of the compounds and vehicle, in order to provoke the oedema for determining the protective effect of the substances under examination, each rat received, by subcutaneous injection into the plantar surface of the left paw, 0.1 ml of 1% sterile carrageenin suspension.

[2] = system: phenyl-p-quinone-induced writhing (abdominal contractions); experiment: phenylquinone-induced writhing test (analgesic activity), compound given 30 min before phenyl-p-quinone; assay type: in vivo, male Wistar rats
Procedure: Male Wistar rats weighing 110±5 g were caged for 10 days at 22±1° C. and given a balanced diet with free access to water. Twenty-four hours before the experiment the animals were randomized into groups of 10 and fasted for 14 hours but with free access to water. Each dose was tested in 3 groups of rats. Thirty minutes following administration either orally or parenterally of the products to be tested and the vehicle alone (0.5% carboxymethyl-cellulose in physiological saline) in the control animals, each rat was given 2 ml of a 5% absolute ethanol aqueous solution containing 0.36% of phenyl-p-quinone (Sigma Chemical Company) in order to provoke writhings. Fifteen minutes after administration of phenyl-p-quinone the number of contractions were counted for 20 minutes. The inhibiting effect of the compounds under examination on the abdominal contractions induced by phenyl-p-quinone was calculated by the following formula: % protection= [formula]
Table V lists the tested compounds, doses, routes of administration and their efficacy expressed as percentage of protection, taking into account that phenyl-p-quinone was administered thirty minutes after the compounds.

[3] = system: mucus secreted by the respiratory airway; experiment: antisecretory activity, respiratory mucus secretion; assay type: in vivo, albino male New Zealand rabbits; conditions: vs control group
Procedure: The experiment was carried out in accordance with the method described by Y. Kase (Folia Pharmacol. Jap. 73: 605, 1977) for the purpose of investigating whether or not the compounds under examination determine changes in the volume of the mucus secreted by the respiratory airway. Groups of four albino male New Zealand rabbits (mean weight: 2.5 kg) were used for testing each dose per single group. The animals were anesthetized with urethane (1.1 g/ks b.w.) via the intraperitoneal route and a Y cannula was inserted into the trachea. In order to stimulate mucous secretion a humidifier was connected to the cannula permitting the animals to spontaneously breathe air with 100% humidity at a constant temperature of 39° C. The secreted mucus was collected through another opening in the cannula and measured at three and six hours after administration of the compounds under examination or of the vehicle alone administered in the order of […] (controls). Calculation of the increase or decrease in mucous secretion was based upon the percentage differences between the groups treated with the compounds under examination and the control group. Table VII gives the percentage differences in mucous secretion, and the tested compounds with relative doses and routes of administration.

[4] = system: cough provoked by mechanical stimulation of the tracheal bifurcation mucosa; experiment: antitussive activity, mechanically provoked coughing; assay type: in vivo, albino Guinea-pigs; conditions: 1 h after administration
Procedure: The antitussive effect on albino Guinea-pigs weighing 300 g was evaluated using the method described by Y. Kase (Selected Pharmacological Testing Methods, p.363, Marcel Dekker Inc., New York, 1968). Each dose was tested in a group of animals with a Y cannula inserted into the trachea. In order to provoke coughing, the mucosa of the tracheal bifurcation was mechanically stimulated by insertion of a wild boar's hair through an opening in the cannula, while the other opening was connected to a kymograph to plot the amplitude and/or frequency. The reduction in the number of coughs was evaluated at one hour after administration of the compounds under examination by following the plottings for twenty minutes and comparing the response of the control animals.

SMILES: Cc1ccc(C(=O)c2ccc(CC(=O)NCC(=O)O)n2C)cc1 [Compound 1-c, 1-methyl-5-p-toluoylpyrrole-2-acetamidoacetic acid]
- oedema % inhibition ([1]; 25 mg/Kg per os, 2 h): 38,6%
- oedema % inhibition ([1]; 25 mg/Kg per os, 4 h): 39,1%
- oedema % inhibition ([1]; 25 mg/Kg per os, 6 h): 37.2%
- oedema % inhibition ([1]; 25 mg/Kg per os, 24 h): 12.1%
- oedema % inhibition ([1]; 25 mg/Kg per os, 48 h): 0.0%
- oedema % inhibition ([1]; 25 mg/Kg per os, 72 h): 0.0%
- oedema % inhibition ([1]; 25 mg/Kg, Table IV (route not given), 2 h): 40.0%
- oedema % inhibition ([1]; 25 mg/Kg, Table IV (route not given), 4 h): 44.8%
- oedema % inhibition ([1]; 25 mg/Kg, Table IV (route not given), 6 h): 45.0%
- oedema % inhibition ([1]; 25 mg/Kg, Table IV (route not given), 24 h): 9.0%
- oedema % inhibition ([1]; 25 mg/Kg, Table IV (route not given), 48 h): 0.0%
- oedema % inhibition ([1]; 25 mg/Kg, Table IV (route not given), 72 h): 0.0%
- oedema % inhibition ([1]; 50 mg/Kg per os, 2 h): 51.8%
- oedema % inhibition ([1]; 50 mg/Kg per os, 4 h): 58.9%
- oedema % inhibition ([1]; 50 mg/Kg per os, 6 h): 60.4%
- oedema % inhibition ([1]; 50 mg/Kg per os, 24 h): 18.7%
- oedema % inhibition ([1]; 50 mg/Kg per os, 48 h): 0.0%
- oedema % inhibition ([1]; 50 mg/Kg per os, 72 h): 0.0%
- oedema % inhibition ([1]; 50 mg/Kg, Table IV (route not given), 2 h): 55.0%
- oedema % inhibition ([1]; 50 mg/Kg, Table IV (route not given), 4 h): 64.0%
- oedema % inhibition ([1]; 50 mg/Kg, Table IV (route not given), 6 h): 65.4%
- oedema % inhibition ([1]; 50 mg/Kg, Table IV (route not given), 24 h): 20.0%
- oedema % inhibition ([1]; 50 mg/Kg, Table IV (route not given), 48 h): 8.0%
- oedema % inhibition ([1]; 50 mg/Kg, Table IV (route not given), 72 h): 0.0%
- oedema % inhibition ([1]; 100 mg/Kg per os, 2 h): 69.0%
- oedema % inhibition ([1]; 100 mg/Kg per os, 4 h): 70.1%
- oedema % inhibition ([1]; 100 mg/Kg per os, 6 h): 67.0%
- oedema % inhibition ([1]; 100 mg/Kg per os, 24 h): 26.0%
- oedema % inhibition ([1]; 100 mg/Kg per os, 48 h): 10.0%
- oedema % inhibition ([1]; 100 mg/Kg per os, 72 h): 0.0%
- oedema % inhibition ([1]; 100 mg/Kg, Table IV (route not given), 2 h): 74.8%
- oedema % inhibition ([1]; 100 mg/Kg, Table IV (route not given), 4 h): 77.5%
- oedema % inhibition ([1]; 100 mg/Kg, Table IV (route not given), 6 h): 74.0%
- oedema % inhibition ([1]; 100 mg/Kg, Table IV (route not given), 24 h): 30.4%
- oedema % inhibition ([1]; 100 mg/Kg, Table IV (route not given), 48 h): 12.0%
- oedema % inhibition ([1]; 100 mg/Kg, Table IV (route not given), 72 h): 0.0%
- % Protection ([2]; 5 mg/Kg i.p.): 27.1%
- % Protection ([2]; 5 mg/Kg per os): 25.3%
- % Protection ([2]; 10 mg/Kg i.p.): 46.3%
- % Protection ([2]; 10 mg/Kg per os): 49.0%
- % Protection ([2]; 20 mg/Kg i.p.): 82.0%
- % Protection ([2]; 20 mg/Kg per os): 85.1%
- % difference in mucus secretion ([3]; 50 mg/Kg i.p., 3 h): 0.0%
- % difference in mucus secretion ([3]; 50 mg/Kg i.p., 6 h): 0.0%
- % difference in mucus secretion ([3]; 50 mg/Kg per os, 3 h): 0.0%
- % difference in mucus secretion ([3]; 50 mg/Kg per os, 6 h): +6%
- % difference in mucus secretion ([3]; 75 mg/Kg i.p., 3 h): -12%
- % difference in mucus secretion ([3]; 75 mg/Kg i.p., 6 h): -7%
- % difference in mucus secretion ([3]; 75 mg/Kg per os, 3 h): -10%
- % difference in mucus secretion ([3]; 75 mg/Kg per os, 6 h): -8%
- % difference in mucus secretion ([3]; 100 mg/Kg i.p., 3 h): -37%
- % difference in mucus secretion ([3]; 100 mg/Kg i.p., 6 h): -25%
- % difference in mucus secretion ([3]; 100 mg/Kg per os, 3 h): -35%
- % difference in mucus secretion ([3]; 100 mg/Kg per os, 6 h): -22%
- % inhibition, cough amplitude ([4]; 50 mg/Kg i.p.): 10%
- % inhibition, cough frequency ([4]; 50 mg/Kg i.p.): 25%
- % inhibition, cough amplitude ([4]; 50 mg/Kg per os): 12%
- % inhibition, cough frequency ([4]; 50 mg/Kg per os): 20%
- % inhibition, cough amplitude ([4]; 75 mg/Kg i.p.): 15%
- % inhibition, cough frequency ([4]; 75 mg/Kg i.p.): 27%
- % inhibition, cough amplitude ([4]; 75 mg/Kg per os): 20%
- % inhibition, cough frequency ([4]; 75 mg/Kg per os): 22%
- % inhibition, cough amplitude ([4]; 100 mg/Kg i.p.): 40%
- % inhibition, cough frequency ([4]; 100 mg/Kg i.p.): 51%
- % inhibition, cough amplitude ([4]; 100 mg/Kg per os): 38%
- % inhibition, cough frequency ([4]; 100 mg/Kg per os): 45%
